Assay results taken from PMC2991631 (Biochemical pharmacology, 2010).
Where two headings read alike, the source gives them in different places.

What was measured:
[1] = system: carboxylesterases (CE) in human liver microsomal extracts; test: CE activity; assay type: biochemical; settings: 10μM benzil
[2] = system: carboxylesterases (hiCE, hCE1) in human liver microsomal extracts; assay type: biochemical; settings: 10μM benzil
[3] = liver microsomal extracts, typical

## O=C(C(=O)c1ccccc1)c1ccccc1 [benzil]
[1]; liver microsomal extract HG03
  CE activity + benzil: 640 ± 97 nmol/mg/min
  Loss in CE activity + benzil: 5935 nmol/mg/min
  Loss in CE activity + benzil [%]: 90.3%
[1]; liver microsomal extract HG74
  CE activity + benzil: 854 ± 97 nmol/mg/min
  Loss in CE activity + benzil: 6353 nmol/mg/min
  Loss in CE activity + benzil [%]: 88.2%
[1]; liver microsomal extract HG93
  CE activity + benzil: 521 ± 86 nmol/mg/min
  Loss in CE activity + benzil: 4207 nmol/mg/min
  Loss in CE activity + benzil [%]: 89.0%
[1]; liver microsomal extract HG95
  CE activity + benzil: 469 ± 45 nmol/mg/min
  Loss in CE activity + benzil: 4656 nmol/mg/min
  Loss in CE activity + benzil [%]: 90.9%
[1]; liver microsomal extract HG103
  CE activity + benzil: 448 ± 25 nmol/mg/min
  Loss in CE activity + benzil: 3258 nmol/mg/min
  Loss in CE activity + benzil [%]: 87.9%
[1]; liver microsomal extract HH13
  CE activity + benzil: 389 ± 41 nmol/mg/min
  Loss in CE activity + benzil: 504 nmol/mg/min
  Loss in CE activity + benzil [%]: 56.4%
[1]; liver microsomal extract HH61
  CE activity + benzil: 406 ± 21 nmol/mg/min
  Loss in CE activity + benzil: 5472 nmol/mg/min
  Loss in CE activity + benzil [%]: 93.1%
[1]; liver microsomal extract HH74
  CE activity + benzil: 377 ± 7.8 nmol/mg/min
  Loss in CE activity + benzil: 3329 nmol/mg/min
  Loss in CE activity + benzil [%]: 89.8%
[1]; liver microsomal extract HK37
  CE activity + benzil: 476 ± 58 nmol/mg/min
  Loss in CE activity + benzil: 5856 nmol/mg/min
  Loss in CE activity + benzil [%]: 92.5%
[1]; liver microsomal extract SD003
  CE activity + benzil: 439 ± 42 nmol/mg/min
  Loss in CE activity + benzil: 4804 nmol/mg/min
  Loss in CE activity + benzil [%]: 91.6%
[1]; liver microsomal extract SD004
  CE activity + benzil: 552 ± 35 nmol/mg/min
  Loss in CE activity + benzil: 5070 nmol/mg/min
  Loss in CE activity + benzil [%]: 90.2%
[1]; liver microsomal extract SD104
  CE activity + benzil: 507 ± 48 nmol/mg/min
  Loss in CE activity + benzil: 4881 nmol/mg/min
  Loss in CE activity + benzil [%]: 90.6%
[1]; liver microsomal extract SD120
  CE activity + benzil: 367 ± 27 nmol/mg/min
  Loss in CE activity + benzil: 4128 nmol/mg/min
  Loss in CE activity + benzil [%]: 91.8%
[1]; liver microsomal extract SD123
  CE activity + benzil: 544 ± 29 nmol/mg/min
  Loss in CE activity + benzil: 5401 nmol/mg/min
  Loss in CE activity + benzil [%]: 90.9%
[1]; liver microsomal extract SD124
  CE activity + benzil: 268 ± 11 nmol/mg/min
  Loss in CE activity + benzil: 3140 nmol/mg/min
  Loss in CE activity + benzil [%]: 92.1%
[1]; liver microsomal extract SD128
  CE activity + benzil: 713 ± 2.7 nmol/mg/min
  Loss in CE activity + benzil: 5600 nmol/mg/min
  Loss in CE activity + benzil [%]: 88.7%
[1]; liver microsomal extract SD132
  CE activity + benzil: 935 ± 79 nmol/mg/min
  Loss in CE activity + benzil: 7259 nmol/mg/min
  Loss in CE activity + benzil [%]: 88.6%
[1]; liver microsomal extract SD134
  CE activity + benzil: 322 ± 43 nmol/mg/min
  Loss in CE activity + benzil: 220 nmol/mg/min
  Loss in CE activity + benzil [%]: 40.6%
[1]; liver microsomal extract SD136
  CE activity + benzil: 314 ± 35 nmol/mg/min
  Loss in CE activity + benzil: 2882 nmol/mg/min
  Loss in CE activity + benzil [%]: 90.1%
[1]; [3]
  reduction of CE activity: 80–90%
[2]; liver microsomal extract HG03
  CPT-11 hydrolysis + benzil: 6.62 ± 0.16 pmol/mg/h
  Loss in CPT-11 hydrolysis + benzil: 37.6 pmol/mg/h
  Loss in CPT-11 hydrolysis + benzil [%]: 85%
[2]; liver microsomal extract HG74
  CPT-11 hydrolysis + benzil: 6.25 ± 0.13 pmol/mg/h
  Loss in CPT-11 hydrolysis + benzil: 33.6 pmol/mg/h
  Loss in CPT-11 hydrolysis + benzil [%]: 84.3%
[2]; liver microsomal extract HG93
  CPT-11 hydrolysis + benzil: 4.58 ± 0.10 pmol/mg/h
  Loss in CPT-11 hydrolysis + benzil: 26.0 pmol/mg/h
  Loss in CPT-11 hydrolysis + benzil [%]: 85.0%
[2]; liver microsomal extract HG95
  CPT-11 hydrolysis + benzil: 5.39 ± 0.09 pmol/mg/h
  Loss in CPT-11 hydrolysis + benzil: 19.1 pmol/mg/h
  Loss in CPT-11 hydrolysis + benzil [%]: 78.0%
[2]; liver microsomal extract HG103
  CPT-11 hydrolysis + benzil: 4.22 ± 0.10 pmol/mg/h
  Loss in CPT-11 hydrolysis + benzil: 28.3 pmol/mg/h
  Loss in CPT-11 hydrolysis + benzil [%]: 87.0%
[2]; liver microsomal extract HH13
  CPT-11 hydrolysis + benzil: 3.94 ± 0.12 pmol/mg/h
  Loss in CPT-11 hydrolysis + benzil: 30.0 pmol/mg/h
  Loss in CPT-11 hydrolysis + benzil [%]: 88.4%
[2]; liver microsomal extract HH61
  CPT-11 hydrolysis + benzil: 2.80 ± 0.007 pmol/mg/h
  Loss in CPT-11 hydrolysis + benzil: 19.4 pmol/mg/h
  Loss in CPT-11 hydrolysis + benzil [%]: 87.4%
[2]; liver microsomal extract HH74
  CPT-11 hydrolysis + benzil: 2.49 ± 0.04 pmol/mg/h
  Loss in CPT-11 hydrolysis + benzil: 12.9 pmol/mg/h
  Loss in CPT-11 hydrolysis + benzil [%]: 83.8%
[2]; liver microsomal extract HK37
  CPT-11 hydrolysis + benzil: 4.31 ± 0.02 pmol/mg/h
  Loss in CPT-11 hydrolysis + benzil: 31.0 pmol/mg/h
  Loss in CPT-11 hydrolysis + benzil [%]: 87.8%
[2]; liver microsomal extract SD003
  CPT-11 hydrolysis + benzil: 8.00 ± 0.01 pmol/mg/h
  Loss in CPT-11 hydrolysis + benzil: 46.6 pmol/mg/h
  Loss in CPT-11 hydrolysis + benzil [%]: 85.4%
[2]; liver microsomal extract SD004
  CPT-11 hydrolysis + benzil: 4.38 ± 0.07 pmol/mg/h
  Loss in CPT-11 hydrolysis + benzil: 29.5 pmol/mg/h
  Loss in CPT-11 hydrolysis + benzil [%]: 87.1%
[2]; liver microsomal extract SD104
  CPT-11 hydrolysis + benzil: 3.89 ± 0.32 pmol/mg/h
  Loss in CPT-11 hydrolysis + benzil: 15.6 pmol/mg/h
  Loss in CPT-11 hydrolysis + benzil [%]: 80.0%
[2]; liver microsomal extract SD120
  CPT-11 hydrolysis + benzil: 6.00 ± 0.20 pmol/mg/h
  Loss in CPT-11 hydrolysis + benzil: 37.8 pmol/mg/h
  Loss in CPT-11 hydrolysis + benzil [%]: 86.4%
[2]; liver microsomal extract SD123
  CPT-11 hydrolysis + benzil: 4.00 ± 0.09 pmol/mg/h
[2]; liver microsomal extract SD124
  CPT-11 hydrolysis + benzil: 5.04 ± 0.09 pmol/mg/h
  Loss in CPT-11 hydrolysis + benzil: 22.1 pmol/mg/h
  Loss in CPT-11 hydrolysis + benzil [%]: 81.4%
[2]; liver microsomal extract SD128
  CPT-11 hydrolysis + benzil: 4.03 ± 0.01 pmol/mg/h
  Loss in CPT-11 hydrolysis + benzil: 25.5 pmol/mg/h
  Loss in CPT-11 hydrolysis + benzil [%]: 86.4%
[2]; liver microsomal extract SD132
  CPT-11 hydrolysis + benzil: 4.30 ± 0.01 pmol/mg/h
  Loss in CPT-11 hydrolysis + benzil: 22.3 pmol/mg/h
  Loss in CPT-11 hydrolysis + benzil [%]: 83.9%
[2]; liver microsomal extract SD134
  CPT-11 hydrolysis + benzil: 2.57 ± 0.03 pmol/mg/h
  Loss in CPT-11 hydrolysis + benzil: 14.9 pmol/mg/h
  Loss in CPT-11 hydrolysis + benzil [%]: 85.3%
[2]; liver microsomal extract SD136
  CPT-11 hydrolysis + benzil: 7.76 ± 0.18 pmol/mg/h
  Loss in CPT-11 hydrolysis + benzil: 47.6 pmol/mg/h
  Loss in CPT-11 hydrolysis + benzil [%]: 86.0%
[2]; [3]
  reduction of yields of SN-38 produced: 80–90%
